In brackets after ≈: the same amount, converted by molar mass. Like-named read-outs stand apart in the source and are kept apart here. Residues, ends and D or L forms follow the SMILES beside them. No end group written: not given here. Tobramycin = aminoglycoside, conjugated at the peptide N-terminus; Neomycin = aminoglycoside, conjugated at the peptide N-terminus
How the values were obtained:
E. coli persisters = assay: E. coli persister killing assay, pentobra plus adjuvant; type: cell-based; settings: 10 mM arabinose; 1.5 hours
Protocol: Bacterial persisters were prepared essentially as described above, by growing an E. coli culture for 18-24 hours, at which point 100 μg/ml ampicillin was added for a 4-hour incubation to kill non-persisters. The cells were washed with M9 salts without carbon source, and subsequently diluted with M9 salts to an appropriate cell count for the killing assay. Approximately 10^6 E. coli cells per well were placed in a total volume of 100 μl in a 96-well plate on a shaker at 37° C. for 1.5 hours in the presence of each the following, respectively: Pentobra, Pentobra-plus-glucose (as adjuvant), tobramycin, tobramycin-plus-glucose (as adjuvant). A concentration series was used with 50, 25, 12.5, 6.25 and 0 μM for pentobra or tobramycin, and correspondingly 10, 5, 2.5, 1.25 and 0 mM for glucose. Incubation, dilution, and plating for colony assay determination were as described above. In a separate experiment, approximately 10^6 E. coli cells per well were placed in a total volume of 100 μl in a 96-well plate at 37° C. for 1.5 hours in the presence of each the following, respectively: pentobra, pentobra-plus-10 mM arabinose (as adjuvant), tobramycin, tobramycin-plus-10 mM arabinose (as adjuvant).
Persister cells were isolated and experiments to test for bactericidal activity were performed as described in Example 7 above.

NIH/3T3 cells [1] = assay: CellTox Green cytotoxicity assay; type: cell-based, mouse; settings: concentrations up to 100 μM; 8 h incubation
Protocol: CellTox™ Green assay. The cytotoxicity of Pentobra was investigated on NIH/3T3 cells (ATCC) using CellTox™ Green assay (Promega, United States of America). Cells were seeded in a 96 well plate at a concentration of 2.5×10^3 cells/well. 100 μL of DMEM media were added to each well containing 0.2% CellTox green dye and varying concentrations of Pentobra, CPP or tobramycin and incubated for 8 and 24 h before the plate was read using an excitation wavelength of 485 nm and emission filter of 535 nm on a microplate reader (Beckman Coulter, DTX 880 Multimode Detector). A lysis solution, known to be toxic to the cells, was used as a positive control which represented the maximum dead cell signal obtainable from non-proliferating cells. The untreated cell population represented the maximal negative control signal obtainable at the end of an exposure period. The fluorescence values were normalized (from positive and negative controls) and converted to corresponding viability values.

NIH/3T3 cells [2] = assay: LIVE/DEAD viability/cytotoxicity assay; settings: 100 μM; 8 h
Protocol: The effect of Pentobra on the plasma membrane integrity was investigated on NIH/3T3 cells using the Live/Dead® Viability/Cytotoxicity Kit (Molecular Probes). Briefly, 50,000 cells/well were incubated in a 24-well plate and treated with 100 μM of tobramycin, Pen peptide or Pentobra for 8 h at 37° C. Then, the cells were stained with 100 μL of the live/Dead assay reagents (2 μM calcein and 4 μM ethidium homodimer), and incubated at 37° C. for 20 min. The labeled cells were counted using a Zeiss Axiovert Observer Z1 inverted fluorescent microscope (at least 160 cells were counted for each treatment).
In addition, the effect of Pentobra on the cell membrane integrity was evaluated using the LIVE/DEAD® cell viability assay. This assay simultaneously determined intracellular esterase activity and plasma membrane integrity using two distinct dyes: a) calcein, a membrane permeable polyanionic dye that must be hydrolyzed by intracellular esterases (dead cells lack active esterases) to produce a green fluorescence and b) ethidium homodimer, a membrane impermeable red fluorescent dye that can only penetrate cells with compromised membranes.

[3] = system: Peripheral Blood Mononuclear Cells (PBMCs); assay: cell viability assay (MTT section, CellTiter-GLO); type: cell-based, human; settings: 26 μM; over 72 hr
Protocol: (§1) Cell proliferation experiments were performed in 96-well plates (5 replicates). 26 μM of Pentobra and Tobramycin treatments were initiated at 24 hours post-seeding for 3 days. Stocks and dilutions of PLX4032/vemurafenib (Plexxikon) and AZD6244/selumetenib (Selleck Chemicals) were made in dimethyl sulfoxide (DMSO). Three cell types (PBMCs, Keratinocytes and Sebocytes cell lines) were tested. Cells were quantified using CellTiter-GLO Luminescence (Promega) following the manufacturer's recommendations.

keratinocytes = assay: cell viability assay (MTT section, CellTiter-GLO); type: cell-based, human; settings: 26 μM; over 72 hr
Protocol: as §1

sebocytes = assay: cell viability assay (MTT section, CellTiter-GLO); type: cell-based, human; settings: 26 μM; over 72 hr
Protocol: as §1

Acinetobacter (AcB) = assay: microbe, parasite or virus in culture; type: cell-based; settings: isolate AcB, PM1434
Description: (§2) Pentobra was screened against a broad panel of microbial pathogens, including strains of E. coli, MRSA, Klebsiella (Kleb), Acinetobacter (AcB), Vancomycin-Sensitive Enterococci (VSE) and Vancomycin-Resistant Enterococci (VRE), and specifically including E. faecalis samples. […] The experimenter reported the minimum inhibitory concentration (MIC) in mass units per unit volume (μg/mL) for each compound, and MIC data were converted into molar concentrations (μM) due to the large difference between the molecular weight of tobramycin (467.5 g/mol) and Pentobra (2277 g/mol).

E. coli [4] = assay: microbe, parasite or virus in culture; type: cell-based
Description: as §2

Klebsiella (Kleb) = assay: microbe, parasite or virus in culture; type: cell-based; settings: isolate Kleb, W6921701-1
Description: as §2

MRSA = assay: microbe, parasite or virus in culture; type: cell-based; settings: isolate MRSA
Description: as §2

[5] = system: Vancomycin-Resistant Enterococci (VRE); assay: microbe, parasite or virus in culture; type: cell-based
Description: as §2

[6] = system: Vancomycin-Sensitive Enterococci (VSE); assay: organism not typed; type: cell-based
Description: as §2

E. coli [7] = assay: antimicrobial activity (MIC) of P-L-A conjugates; type: cell-based
P. aeruginosa = assay: antimicrobial activity (MIC) of P-L-A conjugates; type: cell-based; settings: for MIC: stationary
S. aureus = assay: antimicrobial activity (MIC) of P-L-A conjugates; type: cell-based
[8] = cited from earlier work

Compound: O=C[C@@H](O)[C@H](O)[C@H](O)CO [Arabinose, arabinose]
- effect on killing potency of pentobra (E. coli persisters): enhanced pentobra, but to a lesser extent

Compound: CC[C@H](C)[C@H](NC(=O)[C@H](CCCCN)NC(=O)[C@@H](NC(=O)[C@H](CCC(N)=O)NC(=O)[C@H](CCCNC(=N)N)NC(=O)CCC(=O)OC[C@H]1O[C@H](O[C@@H]2[C@@H](O)[C@H](O[C@H]3O[C@H](CN)[C@@H](O)C[C@H]3N)[C@@H](N)C[C@H]2N)[C@H](O)[C@@H](N)[C@@H]1O)[C@@H](C)CC)C(=O)N[C@@H](Cc1c[nH]c2ccccc12)C(=O)N[C@@H](Cc1ccccc1)C(=O)N[C@@H](CCC(N)=O)C(=O)N[C@@H](CC(N)=O)C(=O)N[C@@H](CCCNC(=N)N)C(=O)N[C@@H](CCCNC(=N)N)C(=O)N[C@@H](Cc1c[nH]c2ccccc12)C(=O)O [Pentobra] (HELM PEPTIDE1{[NC[C@H]1O[C@H](O[C@H]2[C@H](O)[C@@H](O[C@H]3O[C@H](COC(=O)CCC(=O)[*:2])[C@@H](O)[C@H](N)[C@H]3O)[C@H](N)C[C@@H]2N)[C@H](N)C[C@@H]1O].R.Q.I.K.I.W.F.Q.N.R.R.W}$$$$V2.0)
- cytotoxic effect (NIH/3T3 cells [1]): did not show any cytotoxic effect
- cytotoxicity (percentage of red stained cells) (NIH/3T3 cells [2]): no statistical difference in cytotoxicity
- plasma membrane integrity of eukaryotic cells (NIH/3T3 cells [2]): did not induce any loss of plasma membrane integrity
- viability [3]: did not affect the viability
- viability (keratinocytes): did not affect the viability
- viability (sebocytes): did not affect the viability
- MIC (Acinetobacter (AcB)): 7 µM (≈ 16 µg/mL)
- MIC (E. coli [4]; isolate ATCC 25922, Ecoli (second entry)): 4 µM (≈ 9.12 µg/mL)
- MIC (E. coli [4]; isolate ATCC Ecoli, 25922 (first entry)): 2 µM (≈ 4.56 µg/mL)
- MIC (E. coli [4]; isolate Ecoli,YD461): 7 µM (≈ 16 µg/mL)
- MIC (Klebsiella (Kleb)): 7 µM (≈ 16 µg/mL)
- MIC (MRSA; F2806774): 56 µM (≈ 128 µg/mL)
- MIC (MRSA; H2867813): >56 µM
- MIC ([5]; isolate 24670, VRE^? (second entry)): 14 µM (≈ 31.9 µg/mL)
- MIC ([5]; isolate F6541102, VRE): >56 µM
- MIC ([5]; isolate H6926031, VRE*): 14 µM (≈ 31.9 µg/mL)
- MIC ([5]; isolate M6865034, VRE): 14 µM (≈ 31.9 µg/mL)
- MIC ([5]; isolate S3899836, VRE^? (second entry)): 14 µM (≈ 31.9 µg/mL)
- MIC ([5]; isolate VRE, 24670): 14 µM (≈ 31.9 µg/mL)
- MIC ([5]; isolate VRE, S3899836): 14 µM (≈ 31.9 µg/mL)
- MIC ([6]; isolate S4895552, VSE, LZD-R): 14 µM (≈ 31.9 µg/mL)
- MIC ([6]; isolate W7171143,VSE): 56 µM (≈ 128 µg/mL)
- MIC ([6]; isolate W7214342,VSE): 28 µM (≈ 63.9 µg/mL)
- MIC ([6]; isolate X4540299, VSE): 14 µM (≈ 31.9 µg/mL)
- MIC (μM) E. coli (mid-log) (E. coli [7]): 6.25 μM
- MIC (μM) P. aeruginosa (mid-log) (P. aeruginosa): 6.25-12.5 μM
- MIC (P. aeruginosa): 25 µM (≈ 57 µg/mL)
- MIC (μM) S. aureus (mid-log) (S. aureus): 25 μM

Compound: NCC[C@H](O)C(=O)N[C@@H]1C[C@H](N)[C@@H](O[C@H]2O[C@H](CN)[C@@H](O)[C@H](O)[C@H]2O)[C@H](O)[C@H]1O[C@H]1O[C@H](CO)[C@@H](O)[C@H](N)[C@H]1O [amikacin]
- octanol→water partition coefficient Log P ([8]; aminoglycosides): −3.34

Compound: NC[C@H]1O[C@H](O[C@H]2[C@H](O)[C@@H](O[C@H]3O[C@H](CO)[C@@H](O)[C@H](N)[C@H]3O)[C@H](N)C[C@@H]2N)[C@H](O)[C@@H](O)[C@@H]1O [kanamycin]
- octanol→water partition coefficient Log P ([8]; aminoglycosides): −4.55

Compound: NC[C@@H]1O[C@H](O[C@H]2[C@@H](O)[C@H](O[C@@H]3[C@@H](O)[C@H](N)C[C@H](N)[C@H]3O[C@H]3O[C@H](CO)[C@@H](O)[C@H](O)[C@H]3N)O[C@@H]2CO)[C@H](N)[C@@H](O)[C@@H]1O [paromomycin]
- octanol→water partition coefficient Log P ([8]; aminoglycosides): −3.27

Compound: [H]/N=C(/N)N[C@H]1[C@H](O)[C@@H](O)[C@H](O[C@@H]2O[C@@H](C)[C@](O)(C=O)[C@H]2O[C@@H]2O[C@@H](CO)[C@H](O)[C@@H](O)[C@@H]2NC)[C@@H](N/C(N)=N\[H])[C@@H]1O [streptomycin]
- octanol→water partition coefficient Log P ([8]; aminoglycosides): −2.53

Compound: OC[C@H]1O[C@@](CO)(O[C@H]2O[C@H](CO)[C@@H](O)[C@H](O)[C@H]2O)[C@@H](O)[C@@H]1O [sucrose]
- octanol→water partition coefficient Log P ([8]; sugars, Mazzobre et. al. 2005): −3.30

Compound: OC[C@H]1O[C@H](O[C@H]2O[C@H](CO)[C@@H](O)[C@H](O)[C@H]2O)[C@H](O)[C@@H](O)[C@@H]1O [trehalose]
- octanol→water partition coefficient Log P ([8]; sugars, Mazzobre et. al. 2005): −3.77

Compound: Amphi Pentobra: Tobramycin-GWIRNQFRKIWQR [SEQ ID NO: 81], N-terminal conjugation
- MIC (μM) E. coli (mid-log) (E. coli [7]): 3.12 μM
- MIC (μM) P. aeruginosa (mid-log) (P. aeruginosa): 12.5 μM

Compound: Neo13: Neomycin-GFHGVKNLARRIL [SEQ ID NO: 109], N-terminal conjugation
- MIC (μM) P. aeruginosa (mid-log) (P. aeruginosa): 12.5 μM
- MIC (P. aeruginosa): 50 µM
- MIC (μM) S. aureus (mid-log) (S. aureus): 12.5 μM

Compound: NeoGP11: Neomycin-GPWWFKWPRLI [SEQ ID NO: 123], N-terminal conjugation
- MIC (μM) P. aeruginosa (mid-log) (P. aeruginosa): 12.5 μM
- MIC (P. aeruginosa): 50 µM

Compound: RQIKIWFQNRRW [Pen peptide]
- cytotoxicity (percentage of red stained cells) (NIH/3T3 cells [2]): no statistical difference in cytotoxicity

Compound: Reverse Pentobra: Tobramycin-GWRRNQFWIKIQR [SEQ ID NO: 95], N-terminal conjugation
- MIC (μM) E. coli (mid-log) (E. coli [7]): 3.12 μM
- MIC (μM) P. aeruginosa (mid-log) (P. aeruginosa): 12.5 μM

Compound: TobrGW12: Tobramycin-GWRNQIRKGWQR [SEQ ID NO: 135], N-terminal conjugation
- MIC (μM) P. aeruginosa (mid-log) (P. aeruginosa): 6.25 μM
- MIC (P. aeruginosa): 12.5 µM

Compound: gentamycin
- octanol→water partition coefficient Log P ([8]; aminoglycosides): −2.47

Compound: neomycin
- MIC (P. aeruginosa): 12.5 µM
- MIC (μM) S. aureus (mid-log) (S. aureus): 1.56 μM
- octanol→water partition coefficient Log P ([8]; aminoglycosides): −3.65

— patent US20170348337A1, “MULTIFUNCTIONAL MEMBRANE-ACTIVE AMINOGLYCOSIDE-PEPTIDE CONJUGATES” (priority 2014, published 2017)
